This is an account of results in BindingDB's records for doi:10.1021/jm00087a004 (Harvard Medical School, 1992).

Usually Ki stands for the equilibrium dissociation constant of an inhibitor or competing ligand from its target. A lower Ki goes with tighter binding.

A short description of test [1]: Binding affinity towards Opioid receptor delta 1.
Test [2] in a line: Binding affinity towards Opioid receptor delta 1. This is another data set of the same source.

As to `CN1CCC2(c3cccc(O)c3)CCCC1[C@H]2O` (stereo partly drawn), the Ki in test [1] was found to be 420 nM.
On to `CN1CCC2(c3cccc(O)c3)CCCC1C2` (stereo not drawn), for which, in test [2], the Ki was more than 500 nM.
As to `CN1CCC2(c3cccc(O)c3)CCCC1[C@@H]2O` (stereo partly drawn), the Ki in test [1] was more than 500 nM.
